Data set [1] in a line: Plasma levels by LC-MS/MS (tolerance study). The data set is classed as in vivo, Sprague Dawley rats. The protocol:
Immediately after testing, blood was collected via cardiac puncture. Samples were spun down, plasma was collected and acetonitrile added. Samples were frozen at −80° C. and shipped to a commercial laboratory (Enthalpy) for analysis.
Group 3 (8 subjects) was dosed with vehicle only.

The target of data set [2] is T1, GABAA/α1 (α1β3γ2 GABAA receptors) (Homo sapiens, UniProt P14867+P18507).
T1 construct: expressed in transfected cells
As to the kind of experiment: Competitive binding assay, [3H]flunitrazepam. The protocol:
(§1) The GABAA subunit selectivity of several compounds prepared as described above were determined using competitive binding assays. […] Membranes were harvested with a Brandel cell harvester followed by three ice-cold washes onto polyethyleneimine-pretreated (0.3%) Whatman GF/C filters. Filters were dried overnight and then soaked in Ecoscint, a liquid scintillation cocktail (National Diagnostics; Atlanta, Ga.). Bound radioactivity was quantified by liquid scintillation counting. Membrane protein concentrations were determined using an assay kit from Bio-Rad (Hercules, Calif.) with bovine serum albumin as the standard.

The target in data set [3] is T2, GABAA/α2 (α2β3γ2 GABAA receptors) (Homo sapiens, UniProt P18507+P47869).
T2 construct: expressed in transfected cells
Put plainly: Competitive binding assay, [3H]flunitrazepam. The protocol:
as §1

The target of data set [4] is T3, GABAA/α3 (α3β3γ2 GABAA receptors) (Homo sapiens, UniProt P18507+P34903).
T3 construct: expressed in transfected cells
As to the kind of experiment: Competitive binding assay, [3H]flunitrazepam. The protocol: as §1

Data set [5] deals with T4, GABAA/α5 (α5β3γ2 GABAA receptors) (Homo sapiens, UniProt P18507+P31644).
T4 construct: expressed in transfected cells
As to the kind of experiment: Competitive binding assay, [3H]flunitrazepam. As for the experimental part:
as §1

Data set [6] deals with T5, GABAA/α6 (α6β3γ2 GABAA receptors) (Homo sapiens, UniProt P18507+Q16445).
T5 construct: expressed in transfected cells
Put plainly: Competitive binding assay, [3H]flunitrazepam. As for the experimental part:
as §1

Data set [7] has as its target T6, GABAA/α4 (α4β3γ2 GABAA receptors) (Homo sapiens, UniProt P18507+P48169).
T6 construct: expressed in transfected cells
As to the kind of experiment: Competitive binding assay, [3H]flunitrazepam. The protocol:
as §1

For a further data set, the system named is MES-induced seizures. Put plainly: Maximal electroshock test (MES), mice. The settings on record: Mice IP, 100 mg/kg. The data set is classed as in vivo. The protocol:
(§2) The benzodiazepine derivative compounds selective for GABAa receptor subunits were tested for the ability to suppress seizures in several standard rat and mouse models of epilepsy. […] The standard models incorporated into anticonvulsant screening include the maximal electroshock test (MES), the subcutaneous Metrazol test (scMet), and evaluations of toxicity (TOX). The data for each condition is presented as a ratio of either the number of animals protected or toxic (loss of locomotor activity) over the number of animals tested at a given time point and dose.
The MES is a model for generalized tonic-clonic seizures and provides an indication of a compound's ability to prevent seizure spread when all neuronal circuits in the brain are maximally active. These seizures are highly reproducible and are electrophysiologically consistent with human seizures. For all tests based on MES convulsions, 60 Hz of alternating current (50 mA in mice, 150 in rats) is delivered for by corneal electrodes which have been primed with an electrolyte solution containing an anesthetic agent (0.5% tetracaine HCL). For Test 1, mice are tested at various intervals following doses of 30, 100 and 300 mg/kg of test compound given by ip injection of a volume of 0.01 mL/g. In Test 2, rats are tested after a dose of 30 mg/kg (po) in a volume of 0.04 mL/g. Test 8 uses varying doses administered via i.p. injection, again in a volume of 0.04 ml/g. […] In Antiepileptic Drugs, Levy, R. H. M., Meldrum, B. S., Eds.; Raven Press: New York, pp 99-110, 1995b.).

Data set [8] has as its system Metrazol-induced clonic seizures. Put plainly: Subcutaneous Metrazol test (scMet), mice. The data set is classed as in vivo. The settings on record: Mice IP, 100 mg/kg. As for the experimental part:
as §2
Subcutaneous injection of the convulsant Metrazol produces clonic seizures in laboratory animals. […] Animals are pretreated with various doses of the test compound (in a similar manner to the MES test, although a dose of 50 mg/kg (po) is the standard for Test 2 scMet). At the previously determined TPE of the test compound, the dose of Metrazol which will induce convulsions in 97% of animals (CD97: 85 mg/kg mice) is injected into a loose fold of skin in the midline of the neck. […] An episode of clonic spasms, approximately 3-5 seconds, of the fore and/or hindlimbs, jaws, or vibrissae is taken as the endpoint.

Data set [9] concerns minimal muscular or neurological impairment. Put plainly: Toxicity (TOX), rotorod procedure, mice. The data set is classed as in vivo. The settings on record: Mice IP, 100 mg/kg. The protocol:
as §2
To assess a compound's undesirable side effects (toxicity), animals are monitored for overt signs of impaired neurological or muscular function. […] When a mouse is placed on a rod that rotates at a speed of 6 rpm, the animal can maintain its equilibrium for long periods of time. The animal is considered toxic if it falls off this rotating rod three times during a 1-min period. In rats, minimal motor deficit is indicated by ataxia, which is manifested by an abnormal, uncoordinated gait. Rats used for evaluating toxicity are examined before the test drug is administered, since individual animals may have peculiarities in gait, equilibrium, placing response, etc., which might be attributed erroneously to the test substance.

[10] abbreviates: Binding Affinity at GABAA/α1, αxβ3γ2, [3H]flunitrazepam competition.
The mark [11] stands for this setting: Binding Affinity at GABAA/α2, αxβ3γ2, [3H]flunitrazepam competition.
[12] abbreviates: Binding Affinity at GABAA/α3, αxβ3γ2, [3H]flunitrazepam competition.
[13] abbreviates: Binding Affinity at GABAA/α5, αxβ3γ2, [3H]flunitrazepam competition.

The source of these data is US20100261711A1, “SELECTIVE ANTICONVULSANT AGENTS AND THEIR USES” (WiSys Technology Foundation, priority 2009, published 2010).

Values joined by “and” are separate entries in the source; they are usually repeats but may differ in a detail not shown here. Equal values may be shown once. Read-outs that look alike come from different tables or passages of the source.

For `C#Cc1ccc2c(c1)C(c1ccccn1)=NCc1c(C(=O)O)ncn1-2` [HZ-166 acid], the “HZ-166 acid, plasma average with outliers excluded” value in [1] (Group 1 (five days dosing of HZ-166)) worked out at 9.03 nmol/mL; in [1] (Group 2 (HZ-166 on day 5 only)) it was 8.72 nmol/mL. The “Conc HZ-166 acid in plasma, individual subjects” value is 2910 ng/mL and 2570 ng/mL and 3430 ng/mL and 2830 ng/mL and BLQ < (1.00) ng/mL and 3780 ng/mL and 3310 ng/mL and 1900 ng/mL in [1] (Group 1: HZ-166 35.5 mg/kg ip for five days, blood after test on day 5); 3270 ng/mL and 2180 ng/mL and 167 ng/mL and 3120 ng/mL and 3100 ng/mL and 3690 ng/mL and 2590 ng/mL and 2080 ng/mL in [1] (Group 2: HZ-166 35.5 mg/kg ip on day 5 only).
Consider `C[Si](C)(C)C#Cc1ccc2c(c1)C(c1ccccc1F)=NCc1c(C(=O)OCC(F)(F)F)ncn1-2` [JYI-53, Trifluoroethyl-8-trimethylsilylacetylenyl-6-(2′-fluorophenyl)-4H-benzo[f]imidazo[1,5-a][1,4]diazepine-3-carboxylate], for which the Ki in data set [2] (setting [10]) is 0.0774 µM; in [3] (setting [11]), 0.0404 µM; in [4] (αxβ3γ2, [3H]flunitrazepam competition, read-out: Binding Affinity at GABAA/α3) it was 0.183 µM; in [5] (αxβ3γ2, [3H]flunitrazepam competition, read-out: Binding Affinity at GABAA/α5) it was 0.133 µM; in data set [6] (αxβ3γ2, [3H]flunitrazepam competition, read-out: Binding Affinity at GABAA/α6) it was 3.65 µM.
Consider `C#Cc1ccc2c(c1)C(c1ccccc1F)=NC(C)c1c(C(=O)OCC)ncn1-2` (single isomer, unassigned) [SH-053-2′F-R-CH3, 8-Ethynyl-6-(2-fluorophenyl)-4-methyl-4H-2,5,10b-triaza-benzo[e]azulene-3-carboxylic acid ethyl ester], for which the Ki in [7] and in data set [6] was more than 5 µM each time.
In the case of `C#Cc1ccc2c(c1)C(c1cccs1)=NCc1c(C(=O)OCC)ncn1-2` [JC 221 (76), Ethyl 8-acetyleno-6-(2′-thienyl)-4H-benzo[f]imidazo[1,5-a][1,4]diazepine-3-carboxylate], the Ki came out at 0.146 µM in data set [2] (αxβ3γ2, [3H]flunitrazepam competition, read-out: Binding Affinity at GABAA/α1); 0.035 µM in [3] (αxβ3γ2, [3H]flunitrazepam competition, read-out: Binding Affinity at GABAA/α2); 0.182 µM in data set [4] (setting [12]); 0.0143 µM in [5] (setting [13]); 0.362 µM in [6]. Moreover, the “MES, animals protected/tested” value in the data set with MES-induced seizures (0.5 hr) and with MES-induced seizures (4.0 hr) was 0/3 throughout. The “scMet, animals protected/tested” value in [8] (0.5 hr) and in data set [8] (4.0 hr) was 0/1 throughout. The “TOX (Rotorod Test), animals toxic/tested” value is given as 0/8 in data set [9] (0.5 hr) and 0/4 in data set [9] (4.0 hr).
As to `C#Cc1ccc2c(c1)C(c1ccccc1)=NCc1c(C(=O)OCC(F)(F)F)ncn1-2` [DM-II-20, Trifluoroethyl 8-acetylenyl-6-phenyl-4H-benzo[f]imidazo[1,5-a][1,4]diaze-pine-3-carboxylate], the melting point is 188 to 190 °C. In addition, in data set [2] (setting [10]), the Ki was 5.72 µM. Further, in [3] (setting [11]), the Ki turned out to be 0.177 µM. The Ki in [4] (setting [12]) came to 0.0357 µM. Further, in data set [5] (setting [13]), the Ki stood at 0.198 µM.
On to `CN1C(=O)CN=C(c2ccccc2)c2cc(Cl)ccc21` [Diazepam, reference compound], for which the Ki in data set [7] and in data set [6] was more than 1 µM throughout.
